Key:
Assay in all cases: relative viability (nuclei count vs DMSO), 5 days (fraction); higher = more cells survive
[1] = compound: C/C(=N\NC(=S)N1CCC1)/C2=CC=CC=N2 + COc1cccc2cc(-c3nc([C@H]4CC[C@H](C(=O)O)CC4)n4ncnc(N)c34)[nH]c12 [OSI-027] (partner 0.5 µM)
Procedure, shortened: (§1)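 Relative viability equals treated-well nuclei counts divided by vehicle-well nuclei counts. Counts came from 4× images of lung cancer cell lines grown in 1536-well plates for 5 days after pin-tool dosing on the day after seeding. Dosing used one drug alone or a fixed anchor-drug dose plus five library-drug doses (not always all listed) in √10 steps, and values are medians of duplicate plates.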

[2] = compound: C/C(=N\NC(=S)N1CCC1)/C2=CC=CC=N2 + COc1cc2c(Oc3ccc(NC(=O)C4(C(=O)Nc5ccc(F)cc5)CC4)cc3F)ccnc2cc1OCCCN1CCOCC1 [Foretinib] (partner 0.25 µM)
Procedure, shortened: as §1

[3] = compound: C/C(=N\NC(=S)N1CCC1)/C2=CC=CC=N2 + CC(=O)c1c(C)c2cnc(Nc3ccc(N4CCNCC4)cn3)nc2n(C2CCCC2)c1=O [Palbociclib] (partner 0.5 µM)
Procedure, shortened: as §1

[4] = compound: C/C(=N\NC(=S)N1CCC1)/C2=CC=CC=N2
Procedure, shortened: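 Viability is treated-well nuclei as a fraction of vehicle-well nuclei, reported as the median across plates. Before counting, lung cancer cell lines were kept overnight at 37 °C in 1536-well plates, pinned with five √10-spaced library-drug doses on vehicle-anchored plates, and left 5 days without medium change, then fixed, permeabilised and Hoechst-stained in one step, imaged at 4× and counted by MetaXpress. A plate passed only if control CV was below 25% and at least one doubling occurred.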

| Cell Line | relative viability ([1]; first compound 0.05 µM) | relative viability ([1]; first compound 0.1581 µM) | relative viability ([1]; first compound 0.5 µM) | relative viability ([1]; first compound 1.581 µM) | relative viability ([1]; first compound 5 µM) | relative viability ([2]; first compound 0.05 µM) | relative viability ([2]; first compound 0.1581 µM) | relative viability ([2]; first compound 0.5 µM) | relative viability ([2]; first compound 1.581 µM) | relative viability ([2]; first compound 5 µM) | relative viability ([3]; first compound 0.05 µM) | relative viability ([3]; first compound 0.1581 µM) | relative viability ([3]; first compound 0.5 µM) | relative viability ([3]; first compound 1.581 µM) | relative viability ([3]; first compound 5 µM) | relative viability ([4]; 0.05 µM) | relative viability ([4]; 0.1581 µM) | relative viability ([4]; 0.5 µM) | relative viability ([4]; 1.581 µM) | relative viability ([4]; 5 µM) |
| --- | --- | --- | --- | --- | --- | --- | --- | --- | --- | --- | --- | --- | --- | --- | --- | --- | --- | --- | --- | --- |
| LCLC-103H | 0.178 | 0.22 | 0.217 | 0.2 | 0.19 | 0.176 | 0.311 | 0.221 | 0.133 | 0.167 | 0.335 | 0.464 | 0.309 | 0.289 | 0.287 | 0.336 | 0.331 | 0.347 | 0.335 | 0.357 |
| LK-2 | 0.141 | 0.174 | 0.177 | 0.167 | 0.142 | 0.134 | 0.183 | 0.202 | 0.133 | 0.146 | 0.0858 | 0.0843 | 0.0965 | 0.0618 | 0.112 | 0.172 | 0.182 | 0.18 | 0.14 | 0.176 |
| LOU-NH91 | 0.412 | 0.476 | 0.447 | 0.388 | 0.396 | 0.519 | 0.447 | 0.507 | 0.469 | 0.375 | 0.486 | 0.526 | 0.496 | 0.388 | 0.389 | 0.5 | 0.572 | 0.553 | 0.42 | 0.464 |
| LU99A | 0.186 | 0.182 | 0.161 | 0.162 | 0.177 | 0.276 | 0.189 | 0.181 | 0.186 | 0.189 | 0.14 | 0.312 | 0.129 | 0.127 | 0.121 | 0.161 | 0.209 | 0.162 | 0.145 | 0.182 |
| LXF-289 | 0.2 | 0.223 | 0.222 | 0.146 | 0.0943 | 0.422 | 0.31 | 0.294 | 0.311 | 0.121 | 0.252 | 0.6 | 0.189 | 0.143 | 0.13 | 0.276 | 0.313 | 0.278 | 0.292 | 0.119 |
| NCI-H23 | 0.136 | 0.127 | 0.154 | 0.137 | 0.143 | 0.226 | 0.262 | 0.196 | 0.181 | 0.209 | 0.143 | 0.174 | 0.168 | 0.133 | 0.164 | 0.17 | 0.196 | 0.187 | 0.154 | 0.172 |
| NCI-H322M | 0.325 | 0.351 | 0.321 | 0.288 | 0.337 | 0.282 | 0.32 | 0.31 | 0.295 | 0.336 | 0.345 | 0.382 | 0.488 | 0.379 | 0.439 | 0.337 | 0.337 | 0.352 | 0.329 | 0.35 |

Source: the supplement of paper PMC10307832
